Assay results as given in article PMC11058299, “Synthesis, molecular docking evaluation for LOX and COX-2 inhibition and determination of in-vivo analgesic potentials of aurone derivatives” (Heliyon, 2024).
Entries after “also recorded” stand apart in the source; their conditions may differ.

Assays:
[1] = test system: acetic acid induced writhing; assay: Acetic acid induced writhing test; type: in vivo; settings: mice; for number of writhing: mean ± SEM, control 61.22 ± 3.90
Procedure: The animals were divided into various groups I-XVI consisting of 8 experimental animals for control, sample compounds (WE-1 to WE-7) and standard. Group I: Control, Group II-XV: WE-1 to WE-7 (sample compounds) at dose of 10 mg/kg and 20 mg/kg and Group XVI: Standard. The control (Group I) was given normal saline. Group II-XV received 10 mg/kg and 20 mg/kg of test sample (WE-1 to WE-7). […] The writhing test, following a previously established method, was conducted to assess the analgesic potential of the aurone derivatives. The mice were orally administered samples compounds (WE-1 to WE-7)and standard (Diclofenac sodium 10 mg/kg) 1 h before intraperitoneal administration 10 ml/kg of 1 % acetic acid. Five minutes after the acetic acid administration, the numbers of writhing episodes were counted for 10 min, and the percentage of inhibition was subsequently calculated.

COX-2 enzyme = molecular target: T1, COX-2 enzyme (Homo sapiens, UniProt P35354); assay: COX-2 inhibitory assay; type: biochemical; settings: Table 2
T1 construct: purchased Sigma Aldrich
T1 sequence (P35354 18-604): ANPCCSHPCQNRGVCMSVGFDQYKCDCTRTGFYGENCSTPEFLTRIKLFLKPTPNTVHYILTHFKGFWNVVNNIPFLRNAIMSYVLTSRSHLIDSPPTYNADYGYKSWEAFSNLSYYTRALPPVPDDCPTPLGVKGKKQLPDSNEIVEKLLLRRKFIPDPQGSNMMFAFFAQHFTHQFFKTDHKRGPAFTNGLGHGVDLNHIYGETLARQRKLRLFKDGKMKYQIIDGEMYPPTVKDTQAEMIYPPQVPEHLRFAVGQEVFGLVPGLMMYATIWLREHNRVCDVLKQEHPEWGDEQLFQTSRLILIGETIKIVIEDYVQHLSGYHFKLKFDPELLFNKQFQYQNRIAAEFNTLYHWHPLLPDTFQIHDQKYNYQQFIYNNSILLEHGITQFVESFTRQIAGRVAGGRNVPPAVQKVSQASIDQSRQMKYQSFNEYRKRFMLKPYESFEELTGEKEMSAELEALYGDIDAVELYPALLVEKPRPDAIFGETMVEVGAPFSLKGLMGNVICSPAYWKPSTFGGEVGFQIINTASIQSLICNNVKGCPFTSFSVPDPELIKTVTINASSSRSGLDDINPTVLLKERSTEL
Procedure: COX-2 inhibition was measured spectrophotometrically at 550 nm after the formation of oxidized form of tetramethlenephenylenediamine (TMPD). This assay was conducted according to previously reported procedure. […] The reaction contained 10 μL COX-2 enzymes (100 μM in diluted in DMSO), 10 μL haem of 2.2 mM diluted in DMSO, tris buffers (pH. 8, 100 μl) and drug samples according to the above stated procedure. The reaction was started by the addition of freshly prepared TMPD and methanolic arachidonic acid (AA). Celecoxib is used as a reference drug in this assay. After 5 min of incubation at 25–28C, the absorbance was measured at 550 nm and inhibition was calculated.

LOX enzyme = molecular target: T2, LOX enzyme (Glycine max, UniProt P08170); assay: LOX enzyme kinetic assay (Lineweaver-Burk); type: biochemical; settings: Lineweaver-Burk plot
T2 construct: purchased Cayman Chemicals
T2 sequence (P08170 1-839): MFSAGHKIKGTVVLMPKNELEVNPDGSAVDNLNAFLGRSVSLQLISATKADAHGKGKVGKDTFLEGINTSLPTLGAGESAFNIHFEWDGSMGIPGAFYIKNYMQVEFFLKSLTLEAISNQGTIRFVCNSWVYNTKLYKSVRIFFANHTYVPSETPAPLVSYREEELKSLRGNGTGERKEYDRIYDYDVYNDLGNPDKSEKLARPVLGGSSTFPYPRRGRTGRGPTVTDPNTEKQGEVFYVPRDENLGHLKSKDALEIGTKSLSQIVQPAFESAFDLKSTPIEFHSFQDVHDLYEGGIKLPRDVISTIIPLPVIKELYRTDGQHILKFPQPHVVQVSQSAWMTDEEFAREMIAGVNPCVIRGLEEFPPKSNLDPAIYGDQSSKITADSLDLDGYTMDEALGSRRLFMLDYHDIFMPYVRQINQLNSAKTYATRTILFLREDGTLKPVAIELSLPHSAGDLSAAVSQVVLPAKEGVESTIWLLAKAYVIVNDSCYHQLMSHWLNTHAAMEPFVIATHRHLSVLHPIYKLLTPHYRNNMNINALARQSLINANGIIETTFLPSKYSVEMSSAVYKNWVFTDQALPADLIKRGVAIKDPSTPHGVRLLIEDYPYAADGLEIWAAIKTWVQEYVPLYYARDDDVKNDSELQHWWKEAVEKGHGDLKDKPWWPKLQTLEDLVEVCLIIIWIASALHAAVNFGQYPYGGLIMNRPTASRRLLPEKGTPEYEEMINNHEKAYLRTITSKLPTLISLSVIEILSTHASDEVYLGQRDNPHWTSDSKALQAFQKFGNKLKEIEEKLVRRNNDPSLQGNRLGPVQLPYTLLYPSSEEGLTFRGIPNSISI
Procedure: The type of enzyme inhibition by compound (WE-4) was determined using the continuous spectrophotometric rate determination method. Various concentrations of the substrate (AA) were prepared in a Tween-20 solution within a 200 mM borate buffer at pH 9.0. A fixed concentration of LOX enzyme (10,000 units/ml) was prepared in a separate 200 mM borate buffer at pH 9.0. The enzyme kinetics were analyzed by employing the Lineweaver and Burk method while examining the substrate at different concentrations in the presence or absence of compound (WE-4).

[2] = test system: opioid receptors (tail flicking latency); assay: Assessment of opioid mechanism via tail immersion test with Naloxone; type: in vivo; settings: mice; for Latency response 30 min: control 3.14 ± 0.31; for Latency response 60 min: control 3.17 ± 0.41; for Latency response 120 min: control 3.20 ± 0.29; for Latency response 90 min: control 3.31 ± 0.44
Procedure: The cut-off time was set at 25 s, and the time taken for the mice to flick their tails out of the water was recorded at 30, 60, 90, and 120-min intervals. An increase in the time of tail immersion was compared to the control group to determine the analgesic effect of the tested drugs. The percentage of inhibition was calculated at the time interval showing the highest effect.
To verify the involvement of the opioid mechanism, following the approach outlined in the published study. […] These derivatives were assessed for their potential opioid activity within the control, sample compounds and standard groups using the tail immersion test.

## COc1ccc(C=C2Oc3ccccc3C2=O)cc1OC [WE-4, 2-(3,4-dimethoxybenzylidene)benzofuran-3(2H)-one]
other
  melting point: 175 to 178 °C
[1]; 10 mg/kg oral
  percent analgesic effect (inhibition of writhing): 71.30%
  number of writhing: 17.57 ± 1.94
[1]; 20 mg/kg oral
  percent analgesic effect (inhibition of writhing): 77.60%
  number of writhing: 13.71 ± 1.77
COX-2 enzyme
  IC50: 0.22 µM
LOX enzyme
  type of enzyme inhibition: non-competitive inhibitor; also recorded: non-competitive inhibition
[2]; 10 mg/kg + Naloxone 2 mg/kg
  Latency response 30 min: 3.60 ± 0.61
  Latency response 60 min: 4.49 ± 0.43
  Latency response 120 min: 3.80 ± 0.49
  Latency response 90 min: 5.30 ± 0.48
[2]; 20 mg/kg + Naloxone 2 mg/kg
  Latency response 30 min: 3.41 ± 0.48
  Latency response 60 min: 4.67 ± 0.60
  Latency response 120 min: 4.03 ± 0.57
  Latency response 90 min: 4.80 ± 0.61
